Results on 38 compounds are retold here after paper PMC3617406 (Molecular pharmaceutics, 2013).

Each structure is given as a SMILES string. Counter-ions that a name gives are not always drawn.

One test has as its target T1, human NTCP (Homo sapiens, UniProt Q14973).
T1 sequence (Q14973 1-349): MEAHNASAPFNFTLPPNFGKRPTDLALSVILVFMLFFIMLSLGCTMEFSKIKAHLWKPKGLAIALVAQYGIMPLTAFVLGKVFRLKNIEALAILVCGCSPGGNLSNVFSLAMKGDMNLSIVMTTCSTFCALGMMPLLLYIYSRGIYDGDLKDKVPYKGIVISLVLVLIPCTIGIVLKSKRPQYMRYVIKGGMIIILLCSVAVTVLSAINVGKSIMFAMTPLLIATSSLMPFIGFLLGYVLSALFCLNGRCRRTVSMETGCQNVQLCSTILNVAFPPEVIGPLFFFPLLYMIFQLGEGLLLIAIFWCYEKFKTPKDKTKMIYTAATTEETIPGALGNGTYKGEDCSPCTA
Type of test: cell-based. Particulars: for potency estimated from few doses: read-out: Estimated Ki for NTCP; for NTCP inhibitor or non-inhibitor: inhibitor = Ki less than 300 μM.

The target of another test is T2, human ASBT (Homo sapiens, UniProt Q12908).
T2 sequence (Q12908 1-348): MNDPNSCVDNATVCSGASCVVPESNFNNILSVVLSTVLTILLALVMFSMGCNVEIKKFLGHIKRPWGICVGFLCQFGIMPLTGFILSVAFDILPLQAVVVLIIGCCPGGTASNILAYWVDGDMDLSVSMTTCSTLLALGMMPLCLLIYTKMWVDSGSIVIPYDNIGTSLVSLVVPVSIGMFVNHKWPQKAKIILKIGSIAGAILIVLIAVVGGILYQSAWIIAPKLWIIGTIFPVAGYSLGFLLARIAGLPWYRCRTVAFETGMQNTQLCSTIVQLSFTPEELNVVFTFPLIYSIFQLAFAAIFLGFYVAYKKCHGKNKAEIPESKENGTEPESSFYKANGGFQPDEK
Type of test: cell-based. Particulars: for potency estimated from few doses: read-out: Estimated Ki for ASBT; for fold more potent ASBT inhibition than NTCP inhibition: Ki values of Table 4 and 5; for taurocholate uptake into ASBT-MDCK cells, percent of control: single drug concentration, same as in NTCP screening (typically 100 μM); for ASBT inhibitor or non-inhibitor: inhibitor = Ki below 300 μM.

Take `Nc1nc(NC2CC2)c2ncn([C@H]3C=C[C@@H](CO)C3)c2n1` [Abacavir]: the potency estimated from few doses at human NTCP was 1290 µM; on human ASBT, 1460 µM.

For the compound `C[C@H]1O[C@H](O[C@H]2[C@H](O)[C@@H](O)[C@@H](O[C@H]3[C@H](O)[C@@H](O)C(O)O[C@@H]3CO)O[C@@H]2CO)[C@H](O)[C@@H](O)[C@@H]1N[C@H]1C=C(CO)[C@@H](O)[C@H](O)[C@H]1O` (stereo partly drawn) [Acarbose], the potency estimated from few doses was greater than 100 µM on human NTCP and 318 ± 169 µM at human ASBT.

For `C[C@H]1[C@H](NC(=O)/C(=N\OC(C)(C)C(=O)O)c2csc(N)n2)C(=O)N1S(=O)(=O)O` [Aztreonam], the potency estimated from few doses is greater than 100 µM on human NTCP and 1420 µM on human ASBT.

For the compound `NS(=O)(=O)c1cc2c(cc1C(F)(F)F)NC(Cc1ccccc1)NS2(=O)=O` (stereo not drawn) [Bendroflumethiazide], the potency estimated from few doses at human ASBT was 168 ± 10 µM.

On to `CC(C)C[C@H](NC(=O)[C@H](Cc1ccccc1)NC(=O)c1cnccn1)B(O)O` [Bortezomib], for which the figures for the potency estimated from few doses on human NTCP and on human ASBT were greater than 100 µM and 811 ± 243 µM, respectively.

Take `N[C@@H](C(=O)N[C@@H]1C(=O)N2C(C(=O)O)=C(Cl)CS[C@H]12)c1ccccc1` [Cefaclor]: the potency estimated from few doses at human NTCP is greater than 100 µM; at human ASBT, 1890 ± 257 µM.

As to `COCc1c(C(C)C)nc(C(C)C)c(/C=C/[C@@H](O)C[C@@H](O)CC(=O)O)c1-c1ccc(F)cc1` [Cerivastatin], the “NTCP inhibitor or non-inhibitor” value at human NTCP is “NTCP inhibitors”.

`CCN(CC)CCCC(C)Nc1ccnc2cc(Cl)ccc12` (stereo not drawn) [Chloroquine]: the potency estimated from few doses at human NTCP was 336 ± 101 µM.

Regarding `CN(C)CCCN1c2ccccc2Sc2ccc(Cl)cc21` [Chlorpromazine], the potency estimated from few doses at human NTCP is 767 ± 268 µM. On human ASBT, the “fold more potent ASBT inhibition than NTCP inhibition” value was no less than 10 fold; the potency estimated from few doses is 50.7 ± 5.9 µM; the “taurocholate uptake into ASBT-MDCK cells, percent of control” value is listed as “below 50%”.

As to `CN/C(=N/CCSCc1nc[nH]c1C)NC#N` [Cimetidine], the figures for the potency estimated from few doses on human NTCP and on human ASBT were 332 ± 73 µM and 208 ± 51 µM, respectively.

Take `COc1cccc2c1C(=O)c1c(O)c3c(c(O)c1C2=O)C[C@@](O)(C(C)=O)C[C@@H]3O[C@H]1C[C@H](N)[C@H](O)[C@H](C)O1` [Daunorubicin]: the potency estimated from few doses on human NTCP and at human ASBT was greater than 100 µM each time.

`CCCCOc1cc(C(=O)NCCN(CC)CC)c2ccccc2n1` [Dibucaine]: the potency estimated from few doses on human NTCP was greater than 100 µM; on human ASBT it was 85.8 ± 2.3 µM. Further, the “fold more potent ASBT inhibition than NTCP inhibition” value at human ASBT is reported as no less than 10 fold.

With `Clc1ccc(COC(Cn2ccnc2)c2ccc(Cl)cc2Cl)cc1` (stereo not drawn) [Econazole], the potency estimated from few doses at human NTCP is 416 ± 624 µM. For the same compound, at human ASBT, the “fold more potent ASBT inhibition than NTCP inhibition” value is listed as no less than 10 fold; the “ASBT inhibitor or non-inhibitor” value was “ASBT inhibitors”; the potency estimated from few doses was 18.5 ± 3.9 µM; the “taurocholate uptake into ASBT-MDCK cells, percent of control” value is reported as “below 50%”.

As to `CN1CCC[C@@H]1Cc1c[nH]c2ccc(CCS(=O)(=O)c3ccccc3)cc12` [Eletriptan], the potency estimated from few doses on human NTCP was greater than 100 µM. At human ASBT, the “fold more potent ASBT inhibition than NTCP inhibition” value is given as no less than 10 fold and the potency estimated from few doses is 137 ± 48 µM.

On to `CCOC(=O)[C@H](CCc1ccccc1)N[C@@H](C)C(=O)N1CCC[C@H]1C(=O)O` [Enalapril], for which the potency estimated from few doses is greater than 100 µM at human NTCP and 162 ± 82 µM on human ASBT. On human ASBT, the “fold more potent ASBT inhibition than NTCP inhibition” value was no less than 10 fold.

Regarding `CCCCc1ncc(/C=C(\Cc2cccs2)C(=O)O)n1Cc1ccc(C(=O)O)cc1` [Eprosartan], on human NTCP, the “NTCP inhibitor or non-inhibitor” value is listed as “did not inhibit NTCP” and the potency estimated from few doses was greater than 100 µM. Moreover, on human ASBT, the potency estimated from few doses was 246 ± 119 µM.

Regarding `CCC1(C)CC(=O)NC1=O` (stereo not drawn) [Ethosuximide], the potency estimated from few doses is 513 ± 169 µM on human NTCP and 313 ± 53 µM on human ASBT.

For the compound `O=C1[C@H](CC[C@H](O)c2ccc(F)cc2)[C@@H](c2ccc(O)cc2)N1c1ccc(F)cc1` [Ezetimibe], on human NTCP, the “NTCP inhibitor or non-inhibitor” value is “NTCP inhibitors” and the potency estimated from few doses is 53.8 ± 3.3 µM. Further, on human ASBT, the potency estimated from few doses was 4.61 ± 0.88 µM and the “taurocholate uptake into ASBT-MDCK cells, percent of control” value is on record as “below 50%”.

For the compound `NC(N)=Nc1nc(CSCCC(N)=NS(N)(=O)=O)cs1` [Famotidine], the results for the potency estimated from few doses on human NTCP and on human ASBT were 387 ± 130 µM and 2280 ± 978 µM, respectively.

In the case of `COc1ccc(CC(C)NCC(O)c2ccc(O)c(NC=O)c2)cc1` (stereo not drawn) [Formoterol], the potency estimated from few doses on human NTCP is greater than 100 µM; at human ASBT, 175 ± 96 µM.

Take `NS(=O)(=O)c1cc(C(=O)O)c(NCc2ccco2)cc1Cl` [Furosemide]: the potency estimated from few doses at human NTCP was 304 ± 132 µM; at human ASBT, greater than 100 µM.

For `Cc1ccc(NC(=O)c2ccc(CN3CCN(C)CC3)cc2)cc1Nc1nccc(-c2cccnc2)n1` [Imatinib], the potency estimated from few doses is 673 ± 130 µM on human NTCP and 177 ± 32 µM at human ASBT.

Consider `CCCCC1=NC2(CCCC2)C(=O)N1Cc1ccc(-c2ccccc2-c2nnn[nH]2)cc1` [Irbesartan], for which the “NTCP inhibitor or non-inhibitor” value on human NTCP is recorded as “inhibited NTCP”. The potency estimated from few doses at human ASBT was 131 ± 34 µM.

As to `COC(=O)C1=C(C)NC(C)=C(C(=O)OC(C)C)C1c1cccc2nonc12` (stereo not drawn) [Isradipine], at human NTCP, the “NTCP inhibitor or non-inhibitor” value is “NTCP inhibitors” and the potency estimated from few doses is 99.5 ± 14 µM. At human ASBT, the potency estimated from few doses was 17.9 ± 2.3 µM and the “taurocholate uptake into ASBT-MDCK cells, percent of control” value is listed as “below 50%”.

Regarding `CCC(C)n1ncn(-c2ccc(N3CCN(c4ccc(OCC5COC(Cn6cncn6)(c6ccc(Cl)cc6Cl)O5)cc4)CC3)cc2)c1=O` (stereo not drawn) [Itraconazole], at human NTCP, the “NTCP inhibitor or non-inhibitor” value is “NTCP inhibitors” and the potency estimated from few doses was 77.1 ± 38 µM. Besides, on human ASBT, the “ASBT inhibitor or non-inhibitor” value is reported as “ASBT inhibitors” and the potency estimated from few doses was 57 ± 25 µM.

For `CCCCc1nc(Cl)c(CO)n1Cc1ccc(-c2ccccc2-c2nn[nH]n2)cc1` [Losartan], the potency estimated from few doses at human ASBT was 139 ± 58 µM.

Take `CC[C@H](C)C(=O)O[C@H]1C[C@@H](C)C=C2C=C[C@H](C)[C@H](CC[C@@H]3C[C@@H](O)CC(=O)O3)[C@H]21` [Lovastatin]: at human NTCP, the “NTCP inhibitor or non-inhibitor” value was “NTCP inhibitors” and the potency estimated from few doses is 202 ± 32 µM. Besides, on human ASBT, the potency estimated from few doses was 21.7 ± 2.1 µM and the “taurocholate uptake into ASBT-MDCK cells, percent of control” value is “below 50%”.

In the case of `Cc1ncc([N+](=O)[O-])n1CCO` [Metronidazole], the potency estimated from few doses at human NTCP is 369 ± 83 µM. For the same compound, at human ASBT, the “ASBT inhibitor or non-inhibitor” value is given as “ASBT inhibitors” and the potency estimated from few doses was 223 ± 90 µM.

In the case of `Clc1ccc(COC(Cn2ccnc2)c2ccc(Cl)cc2Cl)c(Cl)c1` (stereo not drawn) [Miconazole], the potency estimated from few doses on human NTCP is 601 ± 300 µM. In addition, at human ASBT, the “ASBT inhibitor or non-inhibitor” value is “ASBT inhibitors” and the potency estimated from few doses is 61.3 ± 16 µM.

Regarding `CCOc1ccc2ccccc2c1C(=O)N[C@@H]1C(=O)N2[C@@H]1SC(C)(C)[C@@H]2C(=O)O` [Nafcillin], the potency estimated from few doses was 2010 ± 5840 µM on human NTCP and greater than 100 µM at human ASBT.

`COc1ccc2cc([C@H](C)C(=O)O)ccc2c1` [Naproxen]: on human NTCP, the “NTCP inhibitor or non-inhibitor” value is reported as “inhibited NTCP” and the potency estimated from few doses was 217 ± 69 µM. At human ASBT, the potency estimated from few doses was 136 ± 13 µM.

Regarding `COCCOC(=O)C1=C(C)NC(C)=C(C(=O)OC(C)C)C1c1cccc([N+](=O)[O-])c1` (stereo not drawn) [Nimodipine], at human ASBT, the potency estimated from few doses was 30.9 ± 1.7 µM and the “taurocholate uptake into ASBT-MDCK cells, percent of control” value is given as “below 50%”.

As for `CCOC(=O)C1=C(C)NC(C)=C(C(=O)OC)C1c1cccc([N+](=O)[O-])c1` (stereo not drawn) [Nitrendipine], the potency estimated from few doses at human ASBT was 31.7 ± 6.5 µM.

`CCCc1nc(C(C)(C)O)c(C(=O)O)n1Cc1ccc(-c2ccccc2-c2nnn[nH]2)cc1` [Olmesartan]: on human ASBT, the “ASBT inhibitor or non-inhibitor” value is on record as “inhibited NTCP but not ASBT” and the potency estimated from few doses was 1050 ± 422 µM.

`O=C(c1ccc(OCCN2CCCCC2)cc1)c1c(-c2ccc(O)cc2)sc2cc(O)ccc12` [Raloxifene HCl]: the potency estimated from few doses at human ASBT is 65.8 ± 9.2 µM.

Turning to `CC(C)c1nc(CN(C)C(=O)N[C@H](C(=O)N[C@@H](Cc2ccccc2)C[C@H](O)[C@H](Cc2ccccc2)NC(=O)OCc2cncs2)C(C)C)cs1` [Ritonavir], at human ASBT, the potency estimated from few doses was 47.3 ± 9.7 µM and the “taurocholate uptake into ASBT-MDCK cells, percent of control” value is given as “below 50%”.

For the compound `CC(C)c1nc(N(C)S(C)(=O)=O)nc(-c2ccc(F)cc2)c1/C=C/[C@@H](O)C[C@@H](O)CC(=O)O` [Rosuvastatin], the potency estimated from few doses on human ASBT was 164 ± 34 µM.

Regarding `Clc1ccc(C(Cn2ccnc2)OCc2ccsc2Cl)c(Cl)c1` (stereo not drawn) [Tioconazole], on human ASBT, the “ASBT inhibitor or non-inhibitor” value was “ASBT inhibitors”; the potency estimated from few doses is 11.9 ± 2.7 µM; the “taurocholate uptake into ASBT-MDCK cells, percent of control” value was “below 50%”.
